According to patent US10017527B2, “KLK4 inhibitors” (Universiteit Antwerpen, priority 2014, dated 2018):
Read-outs that look alike come from different tables or passages of the source.

Assays:
Assay type in all cases: biochemical
[1] = biological target: T1, KLK4 (Homo sapiens, UniProt Q9Y5K2); test: KLK4 enzymatic inhibition, fluorogenic substrate Boc-Val-Pro-Arg-AMC
T1 construct: purchased Viktor Magdolen (TUM), supplied by an academic laboratory
Experimental: The substrate was obtained form Bachem and the enzyme was provided by Viktor Magdolen (TUM). The reaction was monitored with an excitation wavelength of 355 nm and emission wavelength of 460 nm. The initial rate was determined between 2500000 and 4500000 mRFU/min. The reaction mixture contained 25 μM substrate and approximately 1 mU of enzyme in 145 μL of buffer in a final volume of […]. A 50 mM Tris buffer, pH 8.3, was used. From each inhibitor concentration, 5 μL was added, obtaining a final concentration from 0 to 250 μM in a total volume of 0.2 mL. Activity measurements were routinely performed in duplicate. […] IC50 values were obtained by fitting the data with the four-parameter logistics equation using Grafit 7.
[formula] where s=slope factor, v=rate, I0=inhibitor concentration, and range=the fitted uninhibited value minus the background. The equation assumes they falls with increasing x.
(§1) Inhibitor stock solutions were prepared in DMSO and stored at −20° C. Because the compounds described in this paper completely inactivate KLK4 following pseudo first-order kinetics, the IC50 value is inversely correlated with the second-order rate constant of inactivation. For a simple pseudo first-order inactivation process, the activity after incubation with inhibitor (vi) varies with the inhibitor concentration (i), as described in the following equation: vi=v0×e^−k t, where vo is the activity in absence of inhibitor, k is the second-order rate constant of inactivation, and t is the time. The inactivation rate constant was determined from the time course of inhibition.

[2] = biological target: T2, KLK2 (human) (Homo sapiens, UniProt P20151); test: KLK2 inhibition, fluorogenic substrate H-Pro-Phe-Arg-AMC
T2 construct: purchased Viktor Magdolen, TUMunich (TUM), supplied by an academic laboratory
From the text: (§2) The IC50 values For KLK1, KLK2 and KLK8 were obtained in a similar way. For plasmin, tPA, thrombin, Fxa, HNE, Plasma kallikrein Chromogenic substrates were used (absorption: 405 nm). (KLK2, KLK4, KLK8 were supplied by Viktor Magdolen TUMunich (TUM)).

[3] = biological target: T3, KLK1 (human) (Homo sapiens, UniProt P06870); test: KLK1 inhibition, fluorogenic substrate H-Pro-Phe-Arg-AMC
T3 construct: purchased Prospec
From the text: as §2

[4] = biological target: T4, KLK8 (human) (Homo sapiens, UniProt O60259); test: KLK8 inhibition, fluorogenic substrate Boc-Val-Pro-Arg-AMC
T4 construct: purchased Viktor Magdolen, TUMunich (TUM), supplied by an academic laboratory
T4 sequence (O60259 33-260): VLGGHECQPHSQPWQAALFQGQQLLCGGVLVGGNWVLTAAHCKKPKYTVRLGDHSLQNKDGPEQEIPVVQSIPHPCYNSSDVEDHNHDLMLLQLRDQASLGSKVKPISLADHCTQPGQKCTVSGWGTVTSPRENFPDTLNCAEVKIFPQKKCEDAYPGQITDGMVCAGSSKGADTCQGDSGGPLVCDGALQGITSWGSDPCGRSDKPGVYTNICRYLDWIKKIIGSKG
From the text: as §2

[5] = biological target: T5, uPA (recombinant) (Homo sapiens, UniProt P00749); test: uPA inhibition, chromogenic substrate Biophen CS-61(44)
T5 construct: purchased Nodia

[6] = biological target: T6, Plasmine (human plasma) (Homo sapiens, UniProt P00747); test: Plasmin inhibition, chromogenic substrate Biophen CS-21(66)
T6 construct: purchased Sigma-Aldrich; host or cells: human plasma
From the text: as §2

[7] = biological target: T7, Matriptase (Homo sapiens, UniProt Q9Y5Y6); test: Matriptase inhibition
T7 sequence (Q9Y5Y6 1-855): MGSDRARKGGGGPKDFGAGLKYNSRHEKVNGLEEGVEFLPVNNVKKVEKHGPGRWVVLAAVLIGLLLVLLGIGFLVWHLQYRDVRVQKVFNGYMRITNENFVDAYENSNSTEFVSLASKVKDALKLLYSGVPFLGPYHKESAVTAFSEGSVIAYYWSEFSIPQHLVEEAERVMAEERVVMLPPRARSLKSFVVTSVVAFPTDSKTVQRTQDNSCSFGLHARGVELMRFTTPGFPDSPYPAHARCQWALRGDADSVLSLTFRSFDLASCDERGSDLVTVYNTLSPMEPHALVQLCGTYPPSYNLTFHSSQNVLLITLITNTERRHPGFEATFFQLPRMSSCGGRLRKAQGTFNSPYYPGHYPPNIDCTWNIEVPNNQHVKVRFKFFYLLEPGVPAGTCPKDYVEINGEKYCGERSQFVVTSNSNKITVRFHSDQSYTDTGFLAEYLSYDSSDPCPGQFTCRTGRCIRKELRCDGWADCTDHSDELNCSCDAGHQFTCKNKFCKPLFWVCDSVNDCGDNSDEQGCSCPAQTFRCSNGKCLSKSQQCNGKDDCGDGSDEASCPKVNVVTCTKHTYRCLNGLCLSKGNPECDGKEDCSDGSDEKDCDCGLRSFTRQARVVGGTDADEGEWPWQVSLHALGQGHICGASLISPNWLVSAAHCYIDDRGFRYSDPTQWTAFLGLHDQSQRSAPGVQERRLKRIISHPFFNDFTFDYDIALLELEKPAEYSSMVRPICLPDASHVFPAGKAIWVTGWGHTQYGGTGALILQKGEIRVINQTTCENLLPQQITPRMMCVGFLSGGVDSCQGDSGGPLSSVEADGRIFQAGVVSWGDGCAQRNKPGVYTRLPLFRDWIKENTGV

[8] = biological target: T1, KLK4; test: KLK4 inactivation kinetics from progress curves (kobs vs inhibitor concentration); details: for Irreversible (KLK4): irreversible binding to KLK4, Yes/No
Experimental: as §1
The inhibitor was mixed with the substrate (250 μM final concentration), and the buffer solution with the enzyme was added at the time zero. […] The progress curves show the absorbance of aminomethylcoumarine produced as a function of time. Initially, no inhibitor is bound to the enzyme, and the tangent to the progress curve (dA/dt) is proportional to the concentration of the free enzyme. The concentration of free enzyme decreases over time due to the kinetics of inhibitor binding, as described above. Progress curves were recorded in pseudo first-order conditions ([I]0>>[E]0) and with less than 10% conversion of the substrate during the entire time course. In these conditions, dA/dt decreases exponentially with time. The progress curves were fitted with the integrated rate equation to yield a value for kobs, a pseudofirst-order rate constant At=v0[1−e^−k^obs^t]/kobs+A0 where At=absorbance at time t, A0=absorbance at time zero, and v0=uninhibited initial rate.
The apparent second-order rate constant (kapp) was calculated from the slope of the linear part of the plot of kobs versus the inhibitor concentration ([I]0). In case of competition between the inhibitor and the substrate, kapp is smaller than the “real” second order rate constant k discussed above because a certain fraction of the enzyme is present as an enzyme-substrate complex. kapp depends on the substrate concentration used in the experiment, as described by Lambeir et al. (Lambeir, Borloo et al. 1996).

[9] = biological target: T8, tPA (recombinant) (Homo sapiens, UniProt P00750); test: tPA inhibition, chromogenic substrate Biophen CS-05(88); details: Tris buffer pH 8.3; read-out: IC50 tPA
T8 construct: purchased Nodia
From the text: as §2

[10] = biological target: T9, Thrombine (human plasma) (Homo sapiens, UniProt P00734); test: Thrombin inhibition, chromogenic substrate Biophen CS-21(66)
T9 construct: purchased Sigma-Aldrich; host or cells: human plasma

[11] = biological target: T10, FXa (Homo sapiens, UniProt P00742); test: FXa inhibition, chromogenic substrate Biophen CS-11(32); details: Tris buffer pH 8.3; read-out: IC50 FXa
T10 construct: purchased Nodia
From the text: as §2

[12] = biological target: T11, PlasmaKLK (human plasma) (Homo sapiens, UniProt P03952); test: Plasma kallikrein inhibition, chromogenic substrate Biophen CS-31(02); details: Plasma KLK; Tris buffer pH 7.8; read-out: IC50 pKLK
T11 construct: purchased Sigma-Aldrich; host or cells: human plasma
From the text: as §2

[13] = 15 min pre-incubation at 37° C., Tris buffer pH 8.3, read-out: IC50 KLK4
[14] = Tris buffer pH 8.8, read-out: IC50 uPA
[15] = Thrombin, Tris buffer pH 8.3, read-out: IC50 THR
[16] = Plasmin, Tris buffer pH 7.4, read-out: IC50 PLM
[17] = Tris buffer pH 7.8, read-out: IC50 KLK1

T8 sequence (P00750 36-562, species assumed): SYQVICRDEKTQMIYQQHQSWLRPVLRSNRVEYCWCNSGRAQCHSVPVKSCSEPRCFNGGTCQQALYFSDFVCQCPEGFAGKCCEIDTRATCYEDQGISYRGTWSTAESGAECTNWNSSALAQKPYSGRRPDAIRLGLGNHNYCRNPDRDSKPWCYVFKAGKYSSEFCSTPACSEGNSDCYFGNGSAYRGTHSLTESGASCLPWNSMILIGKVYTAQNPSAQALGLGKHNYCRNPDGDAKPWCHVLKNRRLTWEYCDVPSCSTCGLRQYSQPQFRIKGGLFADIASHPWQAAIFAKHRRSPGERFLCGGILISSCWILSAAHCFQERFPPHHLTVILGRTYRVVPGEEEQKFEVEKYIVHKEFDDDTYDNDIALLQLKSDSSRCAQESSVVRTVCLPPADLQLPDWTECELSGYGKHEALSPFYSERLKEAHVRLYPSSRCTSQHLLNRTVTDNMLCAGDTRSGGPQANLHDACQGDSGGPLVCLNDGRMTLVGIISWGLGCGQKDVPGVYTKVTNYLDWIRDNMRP
T11 sequence (P03952 391-638 limits assumed): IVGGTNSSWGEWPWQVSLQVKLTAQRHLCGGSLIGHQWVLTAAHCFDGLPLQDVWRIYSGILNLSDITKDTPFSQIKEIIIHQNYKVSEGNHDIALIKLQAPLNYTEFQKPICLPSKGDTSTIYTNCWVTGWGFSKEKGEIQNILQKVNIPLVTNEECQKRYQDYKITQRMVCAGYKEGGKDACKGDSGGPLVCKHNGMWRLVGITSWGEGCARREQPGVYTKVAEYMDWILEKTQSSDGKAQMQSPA
T11 sequence (P03952 20-390 partner limits assumed): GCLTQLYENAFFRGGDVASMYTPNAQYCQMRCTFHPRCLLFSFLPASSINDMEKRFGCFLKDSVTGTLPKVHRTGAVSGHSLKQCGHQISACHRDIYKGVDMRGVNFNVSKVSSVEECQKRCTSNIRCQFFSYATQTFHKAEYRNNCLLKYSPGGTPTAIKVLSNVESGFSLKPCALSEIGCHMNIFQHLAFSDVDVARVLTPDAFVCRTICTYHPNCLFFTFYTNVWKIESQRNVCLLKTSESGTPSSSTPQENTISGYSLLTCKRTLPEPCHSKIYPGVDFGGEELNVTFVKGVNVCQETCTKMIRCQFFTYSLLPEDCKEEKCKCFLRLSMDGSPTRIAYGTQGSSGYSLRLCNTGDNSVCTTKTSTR
T10 sequence (P00742 235-488 limits assumed): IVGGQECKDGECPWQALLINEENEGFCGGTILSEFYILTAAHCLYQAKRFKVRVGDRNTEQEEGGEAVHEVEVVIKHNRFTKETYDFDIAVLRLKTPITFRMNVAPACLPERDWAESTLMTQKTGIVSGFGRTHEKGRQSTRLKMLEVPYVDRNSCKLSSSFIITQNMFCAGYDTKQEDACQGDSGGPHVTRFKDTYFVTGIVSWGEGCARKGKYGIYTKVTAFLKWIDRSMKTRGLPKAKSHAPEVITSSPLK
T10 sequence (P00742 41-179 partner limits assumed): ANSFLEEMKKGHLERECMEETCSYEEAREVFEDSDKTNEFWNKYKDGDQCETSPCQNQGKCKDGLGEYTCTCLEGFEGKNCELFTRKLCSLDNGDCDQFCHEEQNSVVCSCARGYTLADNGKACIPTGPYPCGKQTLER
T2 sequence (P20151 25-261): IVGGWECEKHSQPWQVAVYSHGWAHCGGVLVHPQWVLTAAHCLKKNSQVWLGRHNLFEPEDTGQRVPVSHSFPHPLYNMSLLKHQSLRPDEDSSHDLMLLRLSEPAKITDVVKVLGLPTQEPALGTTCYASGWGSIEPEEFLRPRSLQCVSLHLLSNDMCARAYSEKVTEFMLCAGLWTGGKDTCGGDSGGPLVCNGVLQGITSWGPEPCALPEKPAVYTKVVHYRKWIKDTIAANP
T1 sequence (Q9Y5K2 31-254): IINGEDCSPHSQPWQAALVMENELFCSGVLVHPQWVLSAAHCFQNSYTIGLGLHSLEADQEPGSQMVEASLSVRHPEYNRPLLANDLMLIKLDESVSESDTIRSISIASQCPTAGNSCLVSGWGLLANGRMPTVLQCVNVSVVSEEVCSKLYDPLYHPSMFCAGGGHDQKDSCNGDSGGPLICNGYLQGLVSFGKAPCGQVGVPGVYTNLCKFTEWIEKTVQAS
T6 sequence (P00747 581-810 limits assumed): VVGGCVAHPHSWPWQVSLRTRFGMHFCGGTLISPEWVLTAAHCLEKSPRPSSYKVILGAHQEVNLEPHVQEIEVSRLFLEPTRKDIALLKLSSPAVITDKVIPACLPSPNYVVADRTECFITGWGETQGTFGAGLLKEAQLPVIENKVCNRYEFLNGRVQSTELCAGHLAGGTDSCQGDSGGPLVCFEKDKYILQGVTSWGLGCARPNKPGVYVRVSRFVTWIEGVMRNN
T6 sequence (P00747 98-580 partner limits assumed): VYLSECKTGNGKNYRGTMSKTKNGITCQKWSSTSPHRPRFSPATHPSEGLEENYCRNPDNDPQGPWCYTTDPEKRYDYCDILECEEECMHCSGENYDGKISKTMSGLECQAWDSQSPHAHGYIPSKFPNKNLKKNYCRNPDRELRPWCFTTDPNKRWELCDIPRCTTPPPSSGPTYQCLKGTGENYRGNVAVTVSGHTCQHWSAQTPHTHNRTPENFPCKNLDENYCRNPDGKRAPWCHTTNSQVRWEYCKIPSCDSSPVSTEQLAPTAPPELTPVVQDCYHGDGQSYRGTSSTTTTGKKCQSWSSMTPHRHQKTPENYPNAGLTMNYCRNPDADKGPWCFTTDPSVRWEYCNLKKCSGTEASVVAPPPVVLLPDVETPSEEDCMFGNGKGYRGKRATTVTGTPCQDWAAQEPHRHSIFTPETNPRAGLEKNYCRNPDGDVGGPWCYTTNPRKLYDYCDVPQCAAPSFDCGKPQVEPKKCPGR
T3 sequence (P06870 25-262): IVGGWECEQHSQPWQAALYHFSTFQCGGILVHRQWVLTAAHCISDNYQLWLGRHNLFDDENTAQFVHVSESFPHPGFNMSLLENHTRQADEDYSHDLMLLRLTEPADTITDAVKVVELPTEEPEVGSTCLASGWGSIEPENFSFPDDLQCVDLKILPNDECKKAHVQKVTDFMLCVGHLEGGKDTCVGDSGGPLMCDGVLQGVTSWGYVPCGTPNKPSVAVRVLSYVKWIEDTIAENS

Row | Compound | IC50 [1] [nM] | IC50 [2] [nM] | IC50 [3] [nM] | IC50 [4] [nM] | IC50 [5] [nM] | IC50 [6] [nM] | IC50 [7] [nM] | kapp KLK4 ([8]; apparent second-order rate constant, substrate 250 μM) [M⁻¹ s⁻¹] | Irreversible (KLK4) [8] | IC50 [1, 13] [nM] | IC50 [5, 14] [nM] | IC50 [9] [nM] | IC50 [10, 15] [nM] | IC50 [6, 16] [nM] | IC50 [11] [nM] | IC50 [12] [nM] | IC50 [3, 17] [nM] | IC50 ([7]; Matriptase, read-out: IC50 MAT) [nM] | IC50 [10] [nM]
1 | N=C(N)Nc1ccc(C(NC(=O)OCCCC(F)(F)F)P(=O)(Oc2ccccc2)Oc2ccccc2)cc1 (stereo not drawn) [Compound 107, 4,4,4-trifluorobutyl ((diphenoxyphosphoryl)(4-guanidinophenyl)methyl) carbamate] | < 100 | 100 to 1000 | 2500 to 10000 | 2500 to 10000 | 2500 to 10000 | 10000 to 250000 | 2500 to 10000 | – | – | – | – | – | – | – | – | – | – | – | –
2 | CSCCOC(=O)NC(c1ccc(NC(=N)N)cc1)P(=O)(Oc1ccccc1)Oc1ccccc1 (stereo not drawn) [Compound 108, 2-(methylthio)ethyl ((diphenoxyphosphoryl)(4-guanidinophenyl)methyl) carbamate] | < 100 | 100 to 1000 | 1000 to 2500 | 1000 to 2500 | 2500 to 10000 | 10000 to 250000 | 2500 to 10000 | – | – | – | – | – | – | – | – | – | – | – | –
3 | N=C(N)Nc1ccc(C(NC(=O)OCc2c(F)c(F)c(F)c(F)c2F)P(=O)(Oc2ccccc2)Oc2ccccc2)cc1 (stereo not drawn) [Compound 109, (perfluorophenyl)methyl ((diphenoxyphosphoryl)(4-guanidinophenyl)methyl) carbamate] | < 100 | 100 to 1000 | 100 to 1000 | 1000 to 2500 | 2500 to 10000 | 10000 to 250000 | 1000 to 2500 | – | – | – | – | – | – | – | – | – | – | – | –
4 | COCCOCCOCCOC(=O)NC(c1ccc(NC(=N)N)cc1)P(=O)(Oc1ccccc1)Oc1ccccc1 (stereo not drawn) [Compound 110, 2-(2-(2-methoxyethoxy)ethoxy)ethyl ((diphenoxyphosphoryl)(4-guanidinophenyl)methyl)carbamate] | < 100 | – | 2500 to 10000 | 1000 to 2500 | 2500 to 10000 | 10000 to 250000 | 2500 to 10000 | 19600 | Yes/ | – | – | – | – | – | – | – | – | – | –
5 | COCCOCCOC(=O)NC(c1ccc(NC(=N)N)cc1)P(=O)(Oc1ccc(NC(C)=O)cc1)Oc1ccc(NC(C)=O)cc1 (stereo not drawn) [Compound 114, 2-(2-methoxyethoxy)ethyl ((bis(4-acetamidophenoxy)phosphoryl)(4-guanidinophenyl)methyl) carbamate] | < 100 | 100 to 1000 | 2500 to 10000 | 1000 to 2500 | 2500 to 10000 | 10000 to 250000 | 1000 to 2500 | – | – | – | – | – | – | – | – | – | – | – | –
6 | N=C(N)Nc1ccc(C(NS(=O)(=O)c2ccccc2)P(=O)(Oc2ccccc2)Oc2ccccc2)cc1 (stereo not drawn) [Compound 127, diphenyl ((4-guanidinophenyl)(phenylsulfonamido)methyl)phosphonate] | – | – | – | – | – | – | – | – | – | 2500 to 10000 | 2500 to 10000 | 2500 to 10000 | 2500 to 10000 | 2500 to 10000 | 2500 to 10000 | 2500 to 10000 | – | – | –
7 | N=C(N)Nc1ccc(C(NS(=O)(=O)c2ccc(C(F)(F)F)cc2)P(=O)(Oc2ccccc2)Oc2ccccc2)cc1 (stereo not drawn) [Compound 130] | – | – | – | – | – | – | – | – | – | < 100 | – | – | – | – | – | – | – | – | –
8 | N=C(N)Nc1ccc(C(NC(=O)OCCOCCOCc2cn(CCOCCOCCOCCNC(=O)CCCC[C@H]3SC[C@H]4NC(=O)N[C@H]43)nn2)P(=O)(Oc2ccccc2)Oc2ccccc2)cc1 (stereo partly drawn) [Compound 135, 2-(2-((1-(13-oxo-17-((3aR,4R,6aS)-2-oxohexahydro-1H-thieno[3,4-d]imidazol-4-yl)-3,6,9-trioxa-12-azaheptadecyl)-1H-1,2,3-triazol-4-yl)methoxy)ethoxy)ethyl ((diphenoxyphosphoryl)(4-guanidinophenyl)methyl)carbamate] | – | – | – | – | – | – | – | – | – | < 100 | 2500 to 10000 | – | 10000 to 250000 | 10000 to 250000 | 10000 to 250000 | 10000 to 250000 | 2500 to 10000 | 2500 to 10000 | –
9 | C#CCOCCOCCOC(=O)NC(Cc1ccc(NC(=N)N)cc1)P(=O)(Oc1ccccc1)Oc1ccccc1 (stereo not drawn) [UPA2, reference compound] | – | – | – | – | < 100 | – | – | – | No | – | – | > 250000 | – | 2500 to 10000 | > 250000 | 10000 to 250000 | – | 100 to 1000 | 10000 to 250000
10 | diphenyl ((4-guanidinophenyl)(4-methoxyphenylsulfonamido)methyl)phosphonate [Compound 132] | – | – | – | – | – | – | – | – | – | 100 to 1000 | 2500 to 10000 | 2500 to 10000 | 2500 to 10000 | 2500 to 10000 | 2500 to 10000 | 2500 to 10000 | 2500 to 10000 | – | –
11 | diphenyl ((4-guanidinophenyl)(phenylsulfonamido)methyl)phosphonate [Compound 128] | – | – | – | – | – | – | – | – | – | 100 to 1000 | 2500 to 10000 | 2500 to 10000 | 2500 to 10000 | 2500 to 10000 | 2500 to 10000 | 2500 to 10000 | – | – | –
